In ChEMBL document CHEMBL1201862, “PubChem BioAssay data set” (2004):
Active and inactive are the calls of the source.

What was measured:
Cytochrome P450 2C9 = Cytochrome P450 2C9 (Homo sapiens, UniProt P11712)
Cytochrome P450 2C19 = Cytochrome P450 2C19 (Homo sapiens, UniProt P33261); experiment: Cytochrome panel assay with activity outcomes. Panel member name: p450-cyp2c19 Compounds with AC50 equal or less than 10 uM are considered active; type: functional
[1] = Luminescence Cell-Based Dose Response HTS to Identify Activators of Luciferase Translation or Activity in H4 […] Cells. [Related pubchem assays: 1829 (Project Summary), 1814 (Primary HTS)]; type: functional
[2] = Luminescence Cell-Based Dose Confirmation HTS to Identify Activators of 5'UTR Stem-Loop Driven Alpha-Synuclein mRNA Translation in H4 Neuroglioblastoma Cells. [Related pubchem assays: 1829 (Project Summary), 1814 (Primary HTS)]; type: functional
H4 = experiment: Luminescence Cell-Based Dose Response HTS to Identify Activators of 5'UTR Stem-Loop Driven Prion Protein mRNA Translation in H4 Neuroglioblastoma Cells. [Related pubchem assays: 1829 (Project Summary), 1814 (Primary HTS)]; type: functional; details: Homo sapiens
Cytochrome P450 1A2 = target: T1, Cytochrome P450 1A2 (Homo sapiens, UniProt P05177);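 further: PubChem cytochrome P450 panel assay, CYP1A2 panel member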
T1 sequence (P05177 whole entry): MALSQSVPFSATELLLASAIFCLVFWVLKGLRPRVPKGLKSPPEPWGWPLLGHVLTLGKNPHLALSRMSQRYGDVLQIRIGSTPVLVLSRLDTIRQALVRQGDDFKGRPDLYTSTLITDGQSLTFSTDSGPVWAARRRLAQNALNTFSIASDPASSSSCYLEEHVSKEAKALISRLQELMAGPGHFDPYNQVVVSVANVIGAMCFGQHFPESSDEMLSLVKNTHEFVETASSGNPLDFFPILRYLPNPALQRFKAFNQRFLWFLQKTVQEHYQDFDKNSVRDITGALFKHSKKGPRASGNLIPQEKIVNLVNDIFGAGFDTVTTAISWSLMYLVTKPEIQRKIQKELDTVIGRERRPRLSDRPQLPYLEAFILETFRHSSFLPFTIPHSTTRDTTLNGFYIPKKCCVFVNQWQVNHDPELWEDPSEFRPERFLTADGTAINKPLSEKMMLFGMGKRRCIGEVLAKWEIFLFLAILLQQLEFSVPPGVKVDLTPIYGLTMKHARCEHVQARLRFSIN

[3] = Luminescence Cell-Based Dose Retest to Confirm Inhibitors of Cancer Stem Cells. [Related pubchem assays (depositor defined):AID2717, AID2721]; type: functional; details: Homo sapiens
Cytochrome P450 3A4 = Cytochrome P450 3A4 (Homo sapiens, UniProt P08684);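 further: CYP3A4 tested as one member of a cytochrome P450 panel screen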
Chain of Cytochrome P450 3A4 (P08684 whole entry): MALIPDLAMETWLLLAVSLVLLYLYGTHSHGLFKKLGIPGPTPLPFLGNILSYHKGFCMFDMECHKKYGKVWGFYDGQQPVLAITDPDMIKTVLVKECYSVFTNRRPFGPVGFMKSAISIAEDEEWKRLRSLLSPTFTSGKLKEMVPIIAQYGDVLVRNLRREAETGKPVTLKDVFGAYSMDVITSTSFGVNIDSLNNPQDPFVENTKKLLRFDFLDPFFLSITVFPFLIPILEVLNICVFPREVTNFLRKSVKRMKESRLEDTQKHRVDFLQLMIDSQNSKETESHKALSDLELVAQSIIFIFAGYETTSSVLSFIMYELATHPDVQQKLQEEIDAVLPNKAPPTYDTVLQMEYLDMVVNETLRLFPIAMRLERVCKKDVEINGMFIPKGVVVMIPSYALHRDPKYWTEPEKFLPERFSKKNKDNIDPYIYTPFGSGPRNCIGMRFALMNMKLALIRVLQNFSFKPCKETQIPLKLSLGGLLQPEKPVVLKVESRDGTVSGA

Cytochrome P450 2D6 = Cytochrome P450 2D6 (Homo sapiens, UniProt P10635);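 further: CYP2D6 member of a cytochrome P450 panel assay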
Chain of Cytochrome P450 2D6 (P10635 whole entry): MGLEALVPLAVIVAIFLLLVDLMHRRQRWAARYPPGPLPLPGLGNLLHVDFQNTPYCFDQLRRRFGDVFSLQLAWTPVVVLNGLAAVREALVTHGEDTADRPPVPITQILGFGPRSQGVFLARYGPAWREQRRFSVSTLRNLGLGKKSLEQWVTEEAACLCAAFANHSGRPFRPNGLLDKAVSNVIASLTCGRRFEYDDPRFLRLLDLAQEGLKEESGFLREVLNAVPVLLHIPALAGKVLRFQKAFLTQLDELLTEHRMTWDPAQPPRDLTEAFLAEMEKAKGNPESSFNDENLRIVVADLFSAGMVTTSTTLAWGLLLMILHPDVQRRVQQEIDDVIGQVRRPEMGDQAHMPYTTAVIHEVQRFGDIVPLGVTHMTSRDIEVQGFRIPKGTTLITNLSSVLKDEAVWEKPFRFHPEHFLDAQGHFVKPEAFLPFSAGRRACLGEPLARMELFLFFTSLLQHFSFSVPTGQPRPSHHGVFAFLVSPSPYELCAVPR

[4] = HepG2 cell cytotoxicity, dose response, cytotoxicity control for Shn3 inhibitor project, CellTiter-Glo, cherry-picked (AID 624134); type: functional, cell-based
[5] = control 3'UTR Renilla luciferase suppression, dose response, counter-screen for Shn3 inhibitor project, cell-based, Clone20-Shn3RL, cherry-picked (AID 624133); type: functional
[6] = Shn3 3'UTR reporter inhibitors, dose response, cell-based, Clone20 osteoblasts, firefly luciferase, cherry-picked (AID 624132); type: functional;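 further: firefly luciferase luminescence from reporter carrying the Shn3 3'UTR in osteoblasts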
[7] = target: T2, Calpain-2 catalytic subunit (Sus scrofa, UniProt P43367); experiment: pig calpain II inhibitor potency, dose response, biochemical, fluorogenic peptide substrate (AID 1420); type: functional
T2 sequence (P43367 whole entry): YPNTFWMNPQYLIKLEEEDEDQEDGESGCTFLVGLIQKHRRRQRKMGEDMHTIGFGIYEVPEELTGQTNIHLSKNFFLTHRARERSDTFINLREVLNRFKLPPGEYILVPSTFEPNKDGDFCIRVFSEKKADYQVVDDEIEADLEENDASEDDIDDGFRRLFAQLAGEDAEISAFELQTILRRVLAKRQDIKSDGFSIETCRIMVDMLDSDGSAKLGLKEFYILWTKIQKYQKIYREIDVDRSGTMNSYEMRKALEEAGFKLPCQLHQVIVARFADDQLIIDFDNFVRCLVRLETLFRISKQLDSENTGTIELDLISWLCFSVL

[8] = target: T3, Carboxy-terminal domain RNA polymerase II polypeptide A small phosphatase 1 (Homo sapiens, UniProt Q9GZU7); experiment: inhibitors of CTDSP1, concentration-response testing, biochemical assay, absorbance-based, actives from ultra-high-throughput screening (AID 540297); type: functional
T3 sequence (Q9GZU7 whole entry): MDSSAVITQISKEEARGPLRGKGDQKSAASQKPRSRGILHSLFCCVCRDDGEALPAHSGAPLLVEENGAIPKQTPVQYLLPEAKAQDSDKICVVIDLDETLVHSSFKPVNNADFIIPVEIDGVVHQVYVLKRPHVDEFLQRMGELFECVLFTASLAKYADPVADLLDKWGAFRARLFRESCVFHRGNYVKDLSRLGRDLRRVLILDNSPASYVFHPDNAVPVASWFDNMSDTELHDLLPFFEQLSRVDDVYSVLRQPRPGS

[9] = HEp-2 cell cytotoxicity, dose response, cytotoxicity control for RSV inhibitor project, HTS (AID 2410); type: functional; details: human respiratory syncytial virus
[10] = target: T4, Rac GTPase-activating protein 1 (Homo sapiens, UniProt Q9H0H5); experiment: MgcRacGAP GTPase-activating activity inhibitors, confirmation, biochemical, ADP Hunter fluorescence, primary and confirmatory (AID 624330); type: functional
T4 sequence (Q9H0H5 whole entry): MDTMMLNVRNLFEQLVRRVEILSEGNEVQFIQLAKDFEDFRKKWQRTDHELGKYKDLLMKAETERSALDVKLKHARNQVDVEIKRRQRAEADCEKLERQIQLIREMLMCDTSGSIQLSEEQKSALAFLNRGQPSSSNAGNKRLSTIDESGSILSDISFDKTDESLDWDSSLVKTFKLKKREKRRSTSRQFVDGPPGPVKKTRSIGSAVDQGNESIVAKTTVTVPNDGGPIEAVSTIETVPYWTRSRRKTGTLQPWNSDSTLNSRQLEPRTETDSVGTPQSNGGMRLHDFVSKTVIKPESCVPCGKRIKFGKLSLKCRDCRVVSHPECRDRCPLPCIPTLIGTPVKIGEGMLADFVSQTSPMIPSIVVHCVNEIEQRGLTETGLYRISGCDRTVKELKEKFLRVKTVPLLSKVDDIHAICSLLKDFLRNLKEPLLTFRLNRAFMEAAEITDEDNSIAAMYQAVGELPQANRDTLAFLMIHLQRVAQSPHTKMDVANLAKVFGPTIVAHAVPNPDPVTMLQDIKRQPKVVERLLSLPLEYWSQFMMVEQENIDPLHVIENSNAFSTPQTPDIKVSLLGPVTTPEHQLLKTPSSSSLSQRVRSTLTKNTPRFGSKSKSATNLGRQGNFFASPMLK

Chain of Cytochrome P450 2C9 (P11712 whole entry): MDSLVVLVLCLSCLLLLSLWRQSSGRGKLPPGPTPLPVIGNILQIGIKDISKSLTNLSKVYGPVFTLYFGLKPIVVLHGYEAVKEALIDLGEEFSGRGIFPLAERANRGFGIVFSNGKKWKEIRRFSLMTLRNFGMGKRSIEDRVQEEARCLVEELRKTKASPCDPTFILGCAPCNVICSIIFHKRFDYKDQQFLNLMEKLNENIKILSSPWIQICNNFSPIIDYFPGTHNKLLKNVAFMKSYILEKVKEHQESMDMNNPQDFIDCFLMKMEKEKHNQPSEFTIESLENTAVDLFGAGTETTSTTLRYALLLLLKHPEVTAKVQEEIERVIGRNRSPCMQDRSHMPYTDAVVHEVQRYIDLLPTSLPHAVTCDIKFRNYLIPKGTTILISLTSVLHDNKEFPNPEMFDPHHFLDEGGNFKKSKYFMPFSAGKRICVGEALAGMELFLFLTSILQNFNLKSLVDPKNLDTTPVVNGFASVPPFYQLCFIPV
Chain of Cytochrome P450 2C19 (P33261 whole entry): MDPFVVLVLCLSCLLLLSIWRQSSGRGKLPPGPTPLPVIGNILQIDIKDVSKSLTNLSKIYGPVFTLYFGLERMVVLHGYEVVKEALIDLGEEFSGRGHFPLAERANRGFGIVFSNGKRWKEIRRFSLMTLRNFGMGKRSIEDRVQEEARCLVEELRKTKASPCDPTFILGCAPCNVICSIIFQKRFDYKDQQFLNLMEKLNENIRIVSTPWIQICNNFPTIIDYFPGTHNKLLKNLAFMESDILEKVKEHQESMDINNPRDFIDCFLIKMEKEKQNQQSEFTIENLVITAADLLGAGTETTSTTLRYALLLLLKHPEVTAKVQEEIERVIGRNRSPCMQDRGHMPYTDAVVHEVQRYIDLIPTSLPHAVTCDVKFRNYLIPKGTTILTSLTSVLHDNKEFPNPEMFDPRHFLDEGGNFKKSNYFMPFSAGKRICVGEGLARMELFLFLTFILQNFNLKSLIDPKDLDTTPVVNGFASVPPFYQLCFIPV

Cc1ccc(C(=O)NCC2CCCO2)cc1N1CCCC1=O (stereo not given)
AC50 (Cytochrome P450 2C9): 2.82 µM (inconclusive)
AC50 (Cytochrome P450 2C19): inconclusive

COc1ccc(NC(=O)Cn2nnc(-c3ccccc3NC(=O)c3cccs3)n2)cc1
EC50 [1]: 3.68 µM (active)
EC50 [2]: > 120 µM (not active)
EC50 (H4): > 120 µM (not active)

CCCCc1nc2cc(C(=O)N(C)C3CCOCC3)ccc2o1
EC50 [1]: 15 µM (active)
EC50 [2]: 1.36 µM (active)
EC50 (H4): 0.399 µM (active)

Cc1cc(C=C(C#N)C#N)c(C)n1-c1ccccc1
AC50 (Cytochrome P450 1A2): 2.24 µM (inconclusive)
AC50 (Cytochrome P450 2C9): 1.12 µM (inconclusive)

Sc1nnc(Cn2c(-c3ccccn3)nc3ccccc32)n1-c1ccc2c(c1)OCCO2
EC50 [1]: 14.9 µM (active)
EC50 [2]: 12.5 µM (active)
EC50 (H4): 29.5 µM (active)

CCOC(=O)c1cnn(-c2ncnc3c2cnn3C)c1N
EC50 [1]: 10.9 µM (active)
EC50 [2]: 31.6 µM (active)
EC50 (H4): 90.5 µM (active)

O=C(Nc1ccccc1)C1=C[C@@H](c2ccc(C(F)(F)F)cc2)C[C@@H](OCc2ccc(CO)cc2)O1
AC50 [3]: 5.5 µM (active)

COc1ccc(-n2c(=O)c(C)nc3cnc(Oc4cccc(Cl)c4)nc32)cc1
AC50 (Cytochrome P450 3A4): 3.16 µM (inconclusive)
AC50 (Cytochrome P450 2C9): 25.1 µM (inconclusive)
AC50 (Cytochrome P450 2D6): 25.1 µM (inconclusive)
AC50 (Cytochrome P450 2C19; read-out: AC50): 39.8 µM (inconclusive)

COC(=O)c1ccc(S(=O)(=O)N2CCCN(Cc3ccccc3)CC2)n1C
AC50 [4]: 69.6 µM (active)
AC50 [5]: 28 µM (active)
AC50 [6]: 51.1 µM (active)

O=S(=O)(c1cccs1)N1CCN(CCOc2ccc(Cl)cc2)CC1
AC50 [4]: 37.6 µM (active)
AC50 [5]: 23.9 µM (active)
AC50 [6]: 13.8 µM (active)

CC(C)(C)c1nc(NCCN2CCOCC2)c2nnn(Cc3ccccc3Cl)c2n1
AC50 [4]: 56.5 µM (active)
AC50 [6]: 8.85 µM (active)

COc1cc(F)c(C2=CC(=O)C[C@H](c3ccc(Cl)cc3)C2)cc1F
AC50 [3]: 1.43 µM (active)

O=C(Nc1cccc2oc(=O)ccc12)c1ccc([N+](=O)[O-])cc1[N+](=O)[O-]
IC50 [7]: 5.83 µM (active)

COc1cccc(NC(=O)CN(C)C(=O)c2cc(-c3ccco3)nc3ccccc23)c1
IC50 [8]: 6.41 µM (active)

Cc1ccc(/C=C\c2[nH]ccc3c4ccccc4nc2-3)cc1
AC50 [3]: 17.4 µM (active)
CC50 [9]: 28.9 µM (active)

COc1cc(/C=C2/CCC/C(=C\c3cc(O)c(OC)c(Cl)c3)C2=O)cc(Cl)c1O
AC50 [3]: 0.629 µM (active)

O=S(=O)(Nc1ccc2[nH]c(-c3ccco3)nc2c1)c1ccccc1
EC50 [1]: 36.8 µM (active)
EC50 [2]: 14.8 µM (active)
EC50 (H4): 17.3 µM (active)

CCOCC(=O)Nc1nnc(C2CCCCC2)s1
EC50 [1]: 83 µM (active)
EC50 [2]: > 120 µM (not active)
EC50 (H4): > 120 µM (not active)

COc1ccccc1/C=N/NC(=S)NCc1ccco1
IC50 [7]: 8.4 µM (active)

CCN1C(=O)/C(=C\N2CCCCCC2)SC1=S
EC50 [1]: 7.47 µM (active)
EC50 [2]: > 120 µM (not active)
EC50 (H4): 12.8 µM (active)

Cc1cccc(C(=O)NNC(=O)c2ccc(-c3ccccc3)cc2)c1
IC50 [8]: 5.8 µM (active)

Cc1nc(SCC(=O)NCCc2ccccc2)c2oc3ccccc3c2n1
AC50 (Cytochrome P450 1A2): 0.562 µM (inconclusive)
AC50 (Cytochrome P450 3A4): 39.8 µM (inconclusive)
AC50 (Cytochrome P450 2C9): 0.398 µM (inconclusive)

Oc1ccc(N=Nc2ccc(Br)cc2)c(O)c1
AC50 [3]: 4.2 µM (active)

Cc1ccc(NC(=O)C2CCC(C(C)(C)C)CC2)cc1S(=O)(=O)N1CCOCC1 (stereo not given)
AC50 [4]: 53.1 µM (active)
AC50 [6]: 12.2 µM (active)

Cc1c(N2C(=O)/C(=C3/C(=O)N(C)c4ccccc43)SC2=S)c(=O)n(-c2ccccc2)n1C
AC50 (Cytochrome P450 1A2): 25.1 µM (inconclusive)
AC50 (Cytochrome P450 3A4): 15.8 µM (inconclusive)
AC50 (Cytochrome P450 2C9): 12.6 µM (inconclusive)
AC50 (Cytochrome P450 2D6): 7.94 µM (inconclusive)

Cc1sc2ncnc(N3CCC(C(=O)Nc4nc5ccc(Cl)cc5s4)CC3)c2c1C
EC50 [1]: 19.2 µM (active)
EC50 [2]: 8.58 µM (active)
EC50 (H4): 28.5 µM (active)

CCN(CC)c1ccc(/C=C2/SC(=O)N(C(C)C)C2=O)o1
AC50 [4]: 58.9 µM (active)
AC50 [5]: 7.5 µM (active)
AC50 [6]: 3.46 µM (active)
IC50 [10]: 48.2 µM (active)

CCn1c(O)cc(=O)nc1SCC(=O)Nc1ccc(C)cc1
EC50 [1]: > 120 µM (not active)
EC50 [2]: > 120 µM (not active)
EC50 (H4): > 120 µM (not active)

O=C(NN=C1CCCC1)c1cc(O)cc(O)c1
IC50 [8]: 10.2 µM (active)

COc1ccc(NC(=O)c2c3c(nc4ccccc24)CCC3)cc1S(=O)(=O)N1CCOCC1
IC50 [8]: 3.75 µM (active)

CC(=O)Nc1ccc2[nH]c(C3CCCCC3)nc2c1
AC50 (Cytochrome P450 2C9): 17.8 µM (inconclusive)
AC50 (Cytochrome P450 2C19): inconclusive

COc1ccc(-n2nc(C(=O)NCC(=O)N3CCN(c4ccccc4F)CC3)c3ccccc3c2=O)cc1
EC50 [1]: 8.08 µM (active)
EC50 [2]: 27.8 µM (active)
EC50 (H4): 95.7 µM (active)

COc1ccc(/C=C2\C(=O)NC(=S)N(C)C2=O)cc1C
IC50 [8]: 0.632 µM (active)
IC50 [10]: 21.4 µM (active)
